From the NIST ThermoML archive (doi:10.1021/acs.jced.7b00578)
“And” between values parts separate entries of the source, which are not always exact repeats. Equal entries are not always repeated.

Columns and labels:
[1] = molar heat capacity at constant pressure; details: 101.33 kPa, Extra sensitive DSC
[2] = Molar enthalpy of transition or fusion; details: Crystal; DSC
[3] = for vapor or sublimation pressure: Closed cell (Static) method

O=C1OCCO1 [ethylene carbonate]
Details	Normal melting temperature [°C]	molar heat capacity at constant pressure [J/K/mol]	vapor or sublimation pressure
[1], 262.19 K, Crystal	–	101.89	–
[1], 264 K, Crystal	–	102.85	–
[1], 266 K, Crystal	–	104	–
[1], 268 K, Crystal	–	105.06	–
[1], 270 K, Crystal	–	106.2	–
[1], 272 K, Crystal	–	107.35	–
[1], 274 K, Crystal	–	108.49	–
[1], 276 K, Crystal	–	109.72	–
[1], 278 K, Crystal	–	110.87	–
[1], 280 K, Crystal	–	112.1	–
[1], 282 K, Crystal	–	113.33	–
[1], 284 K, Crystal	–	114.57	–
[1], 286 K, Crystal	–	115.8	–
[1], 288 K, Crystal	–	117.03	–
[1], 290 K, Crystal	–	118.26	–
[1], 292 K, Crystal	–	119.59	–
[1], 294 K, Crystal	–	120.91	–
[1], 295.68 K, Crystal	–	121.96	–
[1], 316.43 K, Liquid	–	139.49	–
[1], 317 K, Liquid	–	139.58	–
[1], 318 K, Liquid	–	139.75	–
[1], 319 K, Liquid	–	139.84	–
[1], 320 K, Liquid	–	140.02	–
[1], 321 K, Liquid	–	140.1	–
[1], 322 K, Liquid	–	140.28	–
[1], 323 K, Liquid	–	140.37	–
[1], 323.6 K, Liquid	–	140.46	–
[3], 272.67 K, Crystal	–	–	0.00025 kPa
[3], 272.74 K, Crystal	–	–	0.00026 kPa
[3], 272.8 K, Crystal	–	–	0.00025 kPa
[3], 272.88 K, Crystal	–	–	0.00025 kPa
[3], 278.16 K, Crystal	–	–	0.00051 kPa and 0.00049 kPa
[3], 278.17 K, Crystal	–	–	0.00049 kPa
[3], 283.05 K, Crystal	–	–	0.00087 kPa and 0.00088 kPa and 0.00086 kPa
[3], 288.1 K, Crystal	–	–	0.00154 kPa and 0.00152 kPa and 0.00151 kPa
[3], 292.98 K, Metastable liquid	–	–	0.0034 kPa and 0.00338 kPa
[3], 293 K, Metastable liquid	–	–	0.00341 kPa
[3], 293.01 K, Crystal	–	–	0.00258 kPa and 0.00256 kPa
[3], 293.02 K, Crystal	–	–	0.00254 kPa and 0.00256 kPa
[3], 297.98 K, Crystal	–	–	0.00431 kPa and 0.0043 kPa
[3], 297.99 K, Crystal	–	–	0.00431 kPa
[3], 297.99 K, Metastable liquid	–	–	0.00518 kPa and 0.0052 kPa and 0.00521 kPa
[3], 298 K, Metastable liquid	–	–	0.0052 kPa
[3], 302.82 K, Crystal	–	–	0.00702 kPa and 0.00697 kPa
[3], 302.83 K, Crystal	–	–	0.00701 kPa
[3], 302.92 K, Metastable liquid	–	–	0.0078 kPa and 0.00783 kPa
[3], 307.84 K, Crystal	–	–	0.01131 kPa
[3], 307.84 K, Metastable liquid	–	–	0.01153 kPa and 0.01158 kPa and 0.01159 kPa
[3], 307.85 K, Crystal	–	–	0.01133 kPa and 0.0113 kPa
[3], 307.85 K, Metastable liquid	–	–	0.01159 kPa
[3], 312.82 K, Liquid	–	–	0.01692 kPa and 0.01693 kPa
[3], 312.83 K, Liquid	–	–	0.01694 kPa
[3], 317.76 K, Liquid	–	–	0.02435 kPa
[3], 317.77 K, Liquid	–	–	0.02435 kPa and 0.02433 kPa
[3], 322.65 K, Liquid	–	–	0.03439 kPa and 0.03437 kPa
[3], 322.66 K, Liquid	–	–	0.03443 kPa
[3], 327.75 K, Liquid	–	–	0.04874 kPa and 0.04875 kPa
[3], 327.76 K, Liquid	–	–	0.04872 kPa
[3], 327.77 K, Liquid	–	–	0.04878 kPa
[3], 332.8 K, Liquid	–	–	0.06796 kPa and 0.06798 kPa and 0.06797 kPa
[3], 337.66 K, Liquid	–	–	0.09261 kPa
[3], 337.67 K, Liquid	–	–	0.09259 kPa and 0.09267 kPa
[3], 337.68 K, Liquid	–	–	0.09275 kPa
[3], 342.68 K, Liquid	–	–	0.126 kPa
[3], 342.69 K, Liquid	–	–	0.1261 kPa and 0.1262 kPa
[3], 342.7 K, Liquid	–	–	0.1262 kPa
[3], 347.63 K, Liquid	–	–	0.1694 kPa
[3], 347.65 K, Liquid	–	–	0.1695 kPa
[3], 347.66 K, Liquid	–	–	0.1696 kPa
[3], 352.45 K, Liquid	–	–	0.2235 kPa
[3], 352.46 K, Liquid	–	–	0.2236 kPa
[3], 352.47 K, Liquid	–	–	0.2238 kPa
[3], 352.49 K, Liquid	–	–	0.2241 kPa
[3], 357.49 K, Liquid	–	–	0.296 kPa
[3], 357.5 K, Liquid	–	–	0.2961 kPa and 0.2962 kPa and 0.2963 kPa
[3], 362.62 K, Liquid	–	–	0.3906 kPa
[3], 362.63 K, Liquid	–	–	0.3906 kPa and 0.3907 kPa
[3], Crystal, DTA	35.98	–	–

Details	Molar enthalpy of transition or fusion [kcal/mol]
[2]	3.23
